Data from patent publication US10221163B2 (priority 2015, dated 2019).

Experiments:
NDM-1 = NDM-1 (Klebsiella pneumoniae, UniProt C7C422); assay: biochemical; assay type: biochemical; conditions: fluorescence assay, CCF2-FA substrate, 1 pM enzyme, 2 hours at 25° C.; read-out: NDM-1 IC50
Protocol: (§1) Enzyme Activity: Determination of IC50
(§2) The Class B enzyme activities were measured in the presence of the test inhibitor in a fluorescence assay against a commercially available substrate consisting of a cephalosporin core linking 7-hydroxycoumarin to fluorescein (CCF2-FA). […] In a 384-well microplate, the test inhibitor was incubated with the metallo-β-lactamase enzyme and the substrate for 2 hours at 25° C. […] The IC50 value was determined from semi-logarithmic plots of enzyme inhibition versus inhibitor concentration, with a curve generated using a 4-parameter fit.

VIM-1 = VIM-1 (Pseudomonas aeruginosa (strain ATCC 15692 / DSM 22644 / CIP 104116 / JCM 14847 / LMG 12228 / 1C / PRS 101 / PAO1), UniProt A0A0F7KYQ8); assay: biochemical; conditions: VIM-1 IC50, fluorescence assay, CCF2-FA substrate, 30 pM enzyme, 2 hours at 25° C.
Protocol: as §1, §2

[1] = test system: Escherichia coli expressing NDM-1 (CLB30005, CLB30016); assay type: cell-based; conditions: with imipenem 1 μg/ml; for Escherichia coli MITC95: NDM-1 strain, 95% inhibition of growth
Protocol: (§3) Antibiotic Potentiation Activity: Determination of Synergistic Concentration
(§4) The bacterial strains tested included the clinical strains Escherichia coli expressing NDM-1 (CLB30005, CLB30016), Serratia marcescens expressing IMP-1 (CL5741), and Klebsiella pneumoniae expressing VIM-1 (IHMA599644). Inhibitor activity was measured in the presence and absence of imipenem in a 384-well microplate.
(§5) The clinical strains CLB30016, CL5741 and IHMA599644 were grown on trypticase soy agar containing 5% sheep's blood. The bacteria on agar plates were incubated at 35° C. with humidity overnight. The following day, individual colonies from each clinical strain were picked and resuspended in 5 ml saline to attain an OD600 of […], for CLB30016, CL5741 and IHMA599644, respectively. These were further diluted 1:100 into 1.1×CAMHB and used to inoculate the test wells as described below.
(§6) Imipenem in 10 mM 3-(N-morpholino)propanesulfonic acid (MOPS, pH 7) was stored in single use aliquots at −80° C. […] On the day of the assay, 4 μl of antibiotic was added to 45 ul of bacteria followed by 1 μl of test compound and mixed by pipetting and with an orbital shaker. The concentration of antibiotic used in the assay was 1 μg/ml. Microplates were covered and incubated at 35° C. for 22 hours to 24 hours. At the end of the incubation, absorbance was determined using a spectrophotometer.

[2] = test system: Klebsiella pneumoniae expressing VIM-1 (IHMA599644); assay type: cell-based; conditions: for Klebsiella pneumoniae MITC95: VIM-1 strain IHMA599644, with imipenem 1 μg/ml, 95% inhibition of growth
Protocol: as §3, §4, §5, §6

[3] = test system: Serratia marcescens expressing IMP-1 (CL5741); assay type: cell-based; conditions: for Serratia marcescens MITC95: IMP-1 strain CL5741, with imipenem 1 μg/ml, 95% inhibition of growth
Protocol: as §3, §4, §5, §6

[4] = test system: Pseudomonas aeruginosa efflux+ (MB9798), IMP-1; assay type: cell-based; design: Concentration of metallo-β-lactamase inhibitor which restores susceptibility of efflux + (MB9798) strain to imipenem: unit not given here; conditions: C, D serine β-lactamase inhibitor closely related to relebactam; for P. aeruginosa expressing IMP-1, efflux + (MB9798) MITC95: concentration restoring susceptibility to imipenem at 2 μg/mL in the presence of a class A; for Concentration of metallo-β-lactamase inhibitor which restores susceptibility of efflux + (MB9798) strain to imipenem: imipenem at 2 μg/mL, in the presence of a class A
From the text: (§7) The strain background was Pseudomonas aeruginosa PAO1.
(§8) The strain set was then used as a pair to determine the effect of metallo-β-lactamase inhibitors of Formula I on the MIC of imipenem and/or ceftazidime. A fixed concentration of antibiotic was included in standard microbroth MIC tests, usually at the CLSI (Clinical and Laboratory Standards Institute) breakpoint concentration. A fixed amount of a class A/C beta-lactamase inhibitor was also included to inhibit the resident Pseudomonas AmpC enzyme. A serial titration of the metallo-β-lactamase inhibitor was included and the concentration of metallo-β-lactamase inhibitor which restores susceptibility of the strain to the included antibiotic was recorded. That concentration of metallo-β-lactamase inhibitor was then compared between the two strains to determine the fold difference between the efflux+ (MB9798) and efflux− (MB9799) strains. This was taken as an indication of the extent to which the MBLi is subject to efflux.

[5] = test system: Pseudomonas aeruginosa efflux− (MB9799), IMP-1; assay type: cell-based; conditions: C, D serine β-lactamase inhibitor closely related to relebactam; for P. aeruginosa expressing IMP-1, efflux − (MB9799) MITC95: concentration restoring susceptibility to imipenem at 2 μg/mL in the presence of a class A; for Concentration of metallo-β-lactamase inhibitor which restores susceptibility of efflux − (MB9799) strain to imipenem: imipenem at 2 μg/mL, in the presence of a class A
From the text: as §7, §8

IMP-1 = IMP-1 (Serratia marcescens, UniProt P52699); assay: biochemical; assay type: biochemical; conditions: fluorescence assay, CCF2-FA substrate, 2 pM enzyme, 2 hours at 25° C.; read-out: IMP-1 IC50
IMP-1, sequence (P52699 whole entry, looked up, species assumed): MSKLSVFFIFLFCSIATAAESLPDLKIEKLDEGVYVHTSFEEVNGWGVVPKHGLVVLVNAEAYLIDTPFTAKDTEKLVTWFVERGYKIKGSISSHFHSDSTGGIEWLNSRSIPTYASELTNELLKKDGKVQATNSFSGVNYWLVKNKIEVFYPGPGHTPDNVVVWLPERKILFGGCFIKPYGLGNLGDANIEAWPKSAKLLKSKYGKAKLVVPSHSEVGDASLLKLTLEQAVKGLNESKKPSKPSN
Protocol: as §1, §2

[6] = with imipenem 1 μg/ml, 95% inhibition of bacterial growth

NDM-1, sequence (C7C422 whole entry, looked up, species assumed): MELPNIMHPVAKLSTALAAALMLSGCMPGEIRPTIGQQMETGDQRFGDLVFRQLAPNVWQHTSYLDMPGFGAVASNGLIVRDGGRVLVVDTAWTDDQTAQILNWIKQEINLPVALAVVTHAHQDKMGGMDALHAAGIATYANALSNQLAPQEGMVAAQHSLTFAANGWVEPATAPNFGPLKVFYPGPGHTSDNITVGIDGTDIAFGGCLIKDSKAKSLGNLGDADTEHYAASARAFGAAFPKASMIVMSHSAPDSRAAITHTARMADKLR

Row | Structure (SMILES) | IC50 (NDM-1) | IC50 (VIM-1) | Escherichia coli expressing NDM-1 (CLB30016) MITC95 ([1]; 95% inhibition of bacterial growth) | Klebsiella pneumoniae expressing VIM-1 (IHMA599644) MITC95 [2, 6] | Serratia marcescens expressing IMP-1 (CL5741) MITC95 [3, 6] | P. aeruginosa expressing IMP-1, efflux + (MB9798) MITC95 [4] | P. aeruginosa expressing IMP-1, efflux − (MB9799) MITC95 [5] | Escherichia coli MITC95 [1] | Klebsiella pneumoniae MITC95 [2] | Serratia marcescens MITC95 [3] | IC50 (IMP-1) | Concentration of metallo-β-lactamase inhibitor which restores susceptibility of efflux + (MB9798) strain to imipenem [4] | Concentration of metallo-β-lactamase inhibitor which restores susceptibility of efflux − (MB9799) strain to imipenem [5]
1 | Nc1nc2c(-c3ccc(S(=O)(=O)N[C@H]4C[C@H](N)C4)c(S(N)(=O)=O)c3-c3nnn[nH]3)cccc2s1.O=C(O)C(F)(F)F [Example 98, (1r,3r)-3-(4-(2-aminobenzo[d]thiazol-4-yl)-2-sulfamoyl-3-(1H-tetrazol-5-yl)phenylsulfonamido)cyclobutanaminium 2,2,2-trifluoroacetate] | 0.0365 nM | 0.169 nM | 1.823 µM | 2.604 µM | 1.563 µM | 0.7813 µM | 1.042 µM |  |  |  |  |  | 
2 | NCCNS(=O)(=O)c1ccc(-c2cccc3ncccc23)c(-c2nn[nH]n2)c1S(N)(=O)=O [Example 360, N1-(2-aminoethyl)-4-(quinolin-5-yl)-3-(2H-tetrazol-5-yl)benzene-1,2-disulfonamide] |  | 0.135 nM |  |  |  | 1.563 µM | 1.563 µM | 1.563 µM | 3.125 µM | 1.563 µM |  |  | 
3 | C[N+](C)(C)CCCNS(=O)(=O)c1ccc(-c2cccc3sc(N)nc23)c(-c2nnn[nH]2)c1S(N)(=O)=O.O=C([O-])C(F)(F)F [Example 392, 3-({[4-(2-amino-1,3-benzothiazol-4-yl)-2-sulfamoyl-3-(1H-tetrazol-5-yl)phenyl]sulfonyl}amino)-N,N,N-trimethylpropan-1-aminium trifluoroacetate] | 0.0318 nM |  |  |  |  |  |  | 3.125 µM | 12.5 µM | 3.125 µM | 0.221 nM | 1.563 | 3.125
4 | C[C@H](CN)NS(=O)(=O)c1ccc(-c2cc(F)cc3[nH]c(N)nc23)c(-c2nn[nH]n2)c1S(N)(=O)=O [Example 396] | 0.0269 nM |  |  |  |  |  |  | 0.7813 µM | 3.125 µM | 0.3906 µM | 0.221 nM | 0.7813 | 1.563
5 | C[C@@H](CN)NS(=O)(=O)c1ccc(-c2cc(F)cc3[nH]c(N)nc23)c(-c2nn[nH]n2)c1S(N)(=O)=O [Example 397] | 0.161 nM |  |  |  |  |  |  | 3.125 µM | 3.125 µM | 0.7813 µM | 1.6 nM | 1.563 | 1.563
6 | Nc1nc2c(-c3ccc(S(=O)(=O)N[C@H]4CCNC4)c(S(N)(=O)=O)c3-c3nn[nH]n3)cc(F)cc2[nH]1 [Example 399] | 0.0822 nM |  |  |  |  |  |  | 0.7813 µM | 1.563 µM | 1.563 µM | 0.533 nM | 0.7813 | 0.7813
7 | NC[C@@H](O)CNS(=O)(=O)c1ccc(-c2ccnc(N)c2)c(-c2nn[nH]n2)c1S(N)(=O)=O [Example 419] | 0.496 nM |  |  |  |  |  |  | 0.1953 µM | 1.563 µM | 0.7813 µM | 1.51 nM | 1.563 | 0.7813
8 | C[C@H](N)CNS(=O)(=O)c1ccc(-c2ccnc(N)c2)c(-c2nn[nH]n2)c1S(N)(=O)=O [Example 421] | 0.196 nM |  |  |  |  |  |  | 0.3906 µM | 1.563 µM | 0.7813 µM | 1.14 nM | 1.563 | 0.7813
9 | C[C@@H](N)CNS(=O)(=O)c1ccc(-c2ccnc(N)c2)c(-c2nn[nH]n2)c1S(N)(=O)=O [Example 422] | 0.386 nM |  |  |  |  |  |  | 0.3906 µM | 1.563 µM | 0.7813 µM | 0.982 nM | 1.563 | 0.7813
10 | CCOC(=O)c1sc(N)nc1-c1cccc(-c2ccc(S(=O)(=O)NC(CN)CN)c(S(N)(=O)=O)c2-c2nnn[nH]2)c1 [Example 431] | 0.0739 nM |  |  |  |  |  |  | 3.125 µM | 6.25 µM | 3.125 µM | 0.133 nM | 12.5 | 1.563
11 | NCCNS(=O)(=O)c1ccc(-c2cccc3[nH]c(C4CNC4)nc23)c(-c2nn[nH]n2)c1S(N)(=O)=O [Example 443, N1-(2-aminoethyl)-4-(2-(azetidin-3-yl)-1H-benzo[d]imidazol-4-yl)-3-(2H-tetrazol-5-yl)benzene-1,2-disulfonamide] | 0.0814 nM |  |  |  |  |  |  | 0.7813 µM | 1.172 µM | 1.563 µM | 0.79 nM | 0.7813 | 0.7813
12 | Nc1ccc(-c2ccc(S(=O)(=O)N[C@@H]3CCCNC3)c(S(N)(=O)=O)c2-c2nn[nH]n2)cn1 [Example 490, (R)-4-(6-aminopyridin-3-yl)-N1-(piperidin-3-yl)-3-(2H-tetrazol-5-yl)benzene-1,2-disulfonamide] | 0.0439 nM |  |  |  |  |  |  | 0.7813 µM | 3.125 µM | 1.563 µM | 0.176 nM | 1.563 | 1.563
13 | Nc1ccc(-c2ccc(S(=O)(=O)N[C@H]3CCCNC3)c(S(N)(=O)=O)c2-c2nn[nH]n2)cn1 [Example 494, (S)-4-(6-aminopyridin-3-yl)-N1-(piperidin-3-yl)-3-(2H-tetrazol-5-yl)benzene-1,2-disulfonamide] | 0.276 nM |  |  |  |  |  |  | 0.7813 µM | 3.125 µM | 1.563 µM | 0.808 nM | 3.125 | 1.563
